# Data as given in patent US20260248126A1, “BIOCIDE” (PURGOS APS, priority 2020, published 2026).
# Where “and” joins values, the source holds several entries; their conditions need not be identical. Equal entries are not always repeated.
# How the values were obtained:
# [1] = test system: Canidida albicans ISI 1226; experiment: Minimal inhibitory concentration (MIC), microtiter plate; type: cell-based, Candida albicans
# Procedure: For the tested substance. the stock solution was 10%. Minimum inhibitory concentrations (MICs) are defined as the lowest concentration of an antimicrobial that will inhibit the visible growth of a microorganism after a standardized incubation. In the present study, MIC assay was performed by pipetting robot. The principle is that an indicator microorganism at a defined cell density is cultured with a range of concentrations of the test compound, one concentration pr. well in a row on the microtiter plate. For bacteria and yeasts the minimal inhibitory concentration was detected as no increase of optical density (OD), for moulds microtiter plates were read visually. Each indicator organism is tested in duplicate and the MIC is calculated as the average of the two determinations. The tested concentrations of the antimicrobial substances were 2-fold dilutions from 5%. All indicator organisms (see Table 2.) were pre-cultivated in a suitable growth medium and diluted in the same medium to give a final concentration in the assay of ~1×10^3 cfu/ml. The microtiter plates were incubated under specific incubation conditions (see Table 3). [table]
# [2] = test system: Listeria monocytogenes ISI 22; experiment: Minimum bactericidal concentration (MBC), outgrowth from MIC plates; type: cell-based
# Description: (§1) Even when no growth is detectable in the MIC tests, it is possible that the microorganisms have survived the treatment i.e., they are not killed but just prevented from growing. In order to test for survivors, MBC plates were subsequently made from the MIC plates.
# [3] = test system: Debaryomyces hansenii ISI 12; experiment: as above; type: cell-based
# Description: as §1
# [4] = test system: Leuconostoc mesenteroides ISI 504; experiment: as above; type: cell-based
# Description: as §1
# [5] = test system: Lactobacillus brevis ISI 2269; experiment: as above; type: cell-based
# Description: as §1
# [6] = test system: Streptococcus termophilus ISI 1563; experiment: as above; type: cell-based
# Description: as §1
# Aspergillus niger ISI 3 = experiment: as above; type: cell-based
# Description: as §1
# Bacillus cereus ISI 842 = experiment: as above; type: cell-based
# Description: as §1
# [7] = test system: Pseudomonas aeruginosa ISI 1462; experiment: as above; type: cell-based
# Description: as §1
# Murine norovirus = experiment: Antiviral activity, ASTM E1052 Kill Time Screen test; type: cell-based; details: in 60 seconds; from log reduction 0.34
# [8] = test system: microbial contamination of PVB dispersion (bacteria count); experiment: PVB dispersion treated with NBDA: microbial contamination by cATP (LuminUltra); type: cell-based; details: 25° C.
# [9] = test system: Coriolus versicolor. CTB 863 A; experiment: EN 113 test against wood destroying basidiomycetes (impregnated beech); type: cell-based
# Poria placenta. FPRL 280 = experiment: EN 113 test against wood destroying basidiomycetes (impregnated Scots pine sapwood); type: cell-based; details: for Corrected mass loss / Mass loss: Mean
# Acute oral toxicity LD50 = type: in vivo; details: worked out from rat LD50 4250 mg/kg
# [10] = 10% N-BDA in water; cited from earlier work
# [11] = test system: Gloeophyllum trabeum. BAM Ebw. 109; experiment: EN 113 test against wood destroying basidiomycetes (impregnated Scots pine sapwood); type: cell-based
# [12] = test system: Pseudomonas aeruginosa, ATCC 10145; experiment: PT6 screening: microbial activity in pre-formulated acrylic paint (total ATP, aerobic and anaerobic growth on agar plate); type: cell-based
# Procedure: The microbial activity in relation to in-can preservation of paint was tested using three methods: ATP measurement, Aerobic growth on agar plate and Anaerobic growth on agar plate in low-air conditions. In the tests concentrations of 1, 2 and 5% NBDA was tested. […] Furthermore, no significant dependence on concentration was shown in these specific tests. Specific about the ATP measurements: test and method developed by Luminultra. A sample is taken from the test paint at a given time and the total amount of ATP is measured. Total ATP amount are measured at Day 7 and 30. After every ATP measurement, streaking of test material on agar plates has been performed. Growth test in aerobic and anaerobic environment are running in 1 and 14 days, respectively. • Test organism: Pseudomonas aeruginosa, ATCC 10145 The screening has been continuously expanded so that there are individual start-ups of three different trials. See further information in the overview table, table VIII. Table VIII overview. Samples in test. Commercial biocide is Vinkocide CMIK®. Acrylic paint is standard EN 152 (modified without PT6 biocide). P. aeruginosa are inoculated in 200 μl concentration to paint sample size of 140 ml in a sterile “paint can-shape” container. […] “Anaerobic growth day 30” were inoculated on day 20 and measured on day 31.
# [13] = concentrations of 0.36%, 0.51%, 0.72%, 1.01% and 1.43%
structure (smiles),measurement,setting,value
"CCCCN(CCO)CCO [NBDA, N-butyldiethanolamine]",MIC (%),[1],0.63%
same,MBC(%),[2],2.5%
same,MBC(%),[3],2.5%
same,MBC(%),[4],0.63%
same,"optical density (OD), MRC Data",[4]; NBDA 0.02%,1.449 and 1.467
same,"optical density (OD), MRC Data",[4]; NBDA 0.04%,1.449 and 1.468
same,"optical density (OD), MRC Data",[4]; NBDA 0.08%,1.413 and 1.467
same,"optical density (OD), MRC Data",[4]; NBDA 0.16%,1.337 and 1.425
same,"optical density (OD), MRC Data",[4]; NBDA 0.31%,1.452 and 1.448
same,"optical density (OD), MRC Data",[4]; NBDA 1.25%,0.075
same,"optical density (OD), MRC Data",[4]; NBDA 2.50%,0.076 and 0.077
same,"optical density (OD), MRC Data",[4]; NBDA 5.00%,0.066 and 0.067
same,MBC(%),[5],0.31%
same,MBC(%),[6],1.25%
same,"optical density (OD), MIC Data (second Streptococcus table)",[6]; NBDA 0.02%,0.346 and 0.323
same,"optical density (OD), MIC Data (second Streptococcus table)",[6]; NBDA 0.04%,0.307 and 0.283
same,"optical density (OD), MIC Data (second Streptococcus table)",[6]; NBDA 0.08%,0.311 and 0.304
same,"optical density (OD), MIC Data (second Streptococcus table)",[6]; NBDA 0.16%,0.251 and 0.232
same,"optical density (OD), MIC Data (second Streptococcus table)",[6]; NBDA 0.31%,0.802 and 0.522
same,"optical density (OD), MIC Data (second Streptococcus table)",[6]; NBDA 0.63%,0.277 and 0.427
same,"optical density (OD), MIC Data (second Streptococcus table)",[6]; NBDA 1.25%,0.072
same,"optical density (OD), MIC Data (second Streptococcus table)",[6]; NBDA 2.50%,0.070 and 0.068
same,"optical density (OD), MIC Data (second Streptococcus table)",[6]; NBDA 5.00%,0.062 and 0.058
same,MBC(%),Aspergillus niger ISI 3,0.63%
same,MBC(%),Bacillus cereus ISI 842,1.25%
same,MBC(%),[7],1.25%
same,Norovirus eliminated / destroyed,Murine norovirus,54%
same,pH,"[8]; 0.50% NBDA, after 1 month",9.73
same,pH,"[8]; 0.50% NBDA, after 1 week",9.65
same,pH,"[8]; 0.50% NBDA, after 3 months",9.62
same,pH,"[8]; 0.50% NBDA, after 6 months",9.58
same,pH,"[8]; 0.50% NBDA, after 1 day",9.77
same,pH,"[8]; 1.00% NBDA, after 1 month",9.86
same,pH,"[8]; 1.00% NBDA, after 1 week",9.89
same,pH,"[8]; 1.00% NBDA, after 3 months",9.93
same,pH,"[8]; 1.00% NBDA, after 6 months",9.67
same,pH,"[8]; 1.00% NBDA, after 1 day",10.2
same,"Toxic value, Sol. conc.",[9],>2.20 % w/w
same,"Toxic value, Sol. conc.",Poria placenta. FPRL 280,0.72-1.01 % w/w
same,Corrected mass loss,Poria placenta. FPRL 280; Solution conc. 0.36 % w/w,14.2%
same,Corrected mass loss,Poria placenta. FPRL 280; Solution conc. 0.72 % w/w,8.2%
same,Mass loss,Poria placenta. FPRL 280; Solution conc. 0.72 % w/w,7.8%
same,Corrected mass loss,Poria placenta. FPRL 280; Solution conc. 1.01 % w/w,1.4%
same,Mass loss,Poria placenta. FPRL 280; Solution conc. 1.01 % w/w,1.0%
same,Corrected mass loss,Poria placenta. FPRL 280; Solution conc. 1.43 % w/w,1.5%
same,Mass loss,Poria placenta. FPRL 280; Solution conc. 1.43 % w/w,0.4%
same,"fungicide effect, preventing wood destruction",Poria placenta. FPRL 280; [13],effective as a fungicide for preventing wood destruction
same,human consummation equivalent to LD50,Acute oral toxicity LD50,319 gram pr 75 kg
same,pH,[10],around 11.1
same,"Toxic value, Sol. conc.",[11],1.01-1.43 % w/w
same,"fungicide effect, preventing wood destruction",[11]; [13],effective as a fungicide for preventing wood destruction
same,"anti-microbial potential in paint (ATP, aerobic and anaerobic growth)","[12]; 1, 2 and 5% NBDA in acrylic paint",all three concentrations reveal anti-microbial potentials
same,"effect against aerobic bacteria, in-can preservation of paints","[12]; concentrations of 0.5%, 1%, 2%, and 5%",effective against aerobic bacteria such Gram-negative bacteria such as Pseudomonas aeruginosa
